# From publication PMC6345968, “Structural basis for species-selective targeting of Hsp90 in a pathogenic fungus” (Nature Communications, 2019)
# pEC50: −log10 of the molar value. Like-named read-outs stand apart in the source and are kept apart here.
# Experiments:
# [1] = target: T1, Hsp90 in C. albicans (SC5314) lysate (Candida albicans, UniProt P46598); assay: biochemical; assay type: binding; settings: for Ratio re. GdA: EC50 relative to GdA; for Ratio re. GdA / FP signal (raw) / FP signal relative to 0 nM / FP signal: SC5314 lysate; for FP signal: raw
# T1 construct: endogenous in cells; host or cells: C. albicans SC5314 whole-cell lysate
# T1 sequence (P46598 whole entry): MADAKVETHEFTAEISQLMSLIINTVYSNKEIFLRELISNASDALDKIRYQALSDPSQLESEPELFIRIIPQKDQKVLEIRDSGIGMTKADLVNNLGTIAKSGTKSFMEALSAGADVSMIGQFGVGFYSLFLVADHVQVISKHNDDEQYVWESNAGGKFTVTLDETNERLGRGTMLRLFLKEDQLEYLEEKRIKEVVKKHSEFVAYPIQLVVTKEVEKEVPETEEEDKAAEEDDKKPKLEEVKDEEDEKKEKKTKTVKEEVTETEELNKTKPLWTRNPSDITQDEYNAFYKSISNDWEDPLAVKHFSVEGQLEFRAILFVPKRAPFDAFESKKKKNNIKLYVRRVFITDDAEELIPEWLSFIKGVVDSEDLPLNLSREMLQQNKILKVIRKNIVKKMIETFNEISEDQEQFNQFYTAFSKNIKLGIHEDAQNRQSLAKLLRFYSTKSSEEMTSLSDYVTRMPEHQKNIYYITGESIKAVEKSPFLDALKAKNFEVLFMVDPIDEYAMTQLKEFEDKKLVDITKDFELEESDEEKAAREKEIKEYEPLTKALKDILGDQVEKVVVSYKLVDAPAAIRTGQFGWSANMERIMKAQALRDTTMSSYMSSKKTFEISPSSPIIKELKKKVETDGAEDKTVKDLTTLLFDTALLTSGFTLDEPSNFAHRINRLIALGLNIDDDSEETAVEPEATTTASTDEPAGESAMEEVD
# Hsp90 in HEPG2 lysate = settings: for FP signal: raw
# [2] = ratio of GdA-normalized EC50s, human over fungal lysate
# [3] = ratio of GdA-relative EC50 ratios, HepG2 over SC5314
# [4] = EC50 / EC50 of GdA in HepG2 lysate
# [5] = EC50 relative to GdA, HEPG2 lysate
# [6] = HEPG2 lysate, log concentration 0.137354 (1.372 nM)
# [7] = HEPG2 lysate, log concentration 0.61437 (4.115 nM)
# [8] = HEPG2 lysate, log concentration 1.09153 (12.346 nM)
# [9] = HEPG2 lysate, log concentration 1.56864 (37.037 nM)
# [10] = HEPG2 lysate, log concentration 2.04576 (111.111 nM)
# [11] = HEPG2 lysate, log concentration 2.52288 (333.333 nM)
# [12] = HEPG2 lysate, log concentration 3 (1000 nM)
# [13] = HEPG2 lysate, log concentration 3.47712 (3000 nM)
# [14] = HEPG2 lysate, log concentration -0.340084 (0.457 nM)
# [15] = HepG2 lysate, 0.457 nM compound
# [16] = HepG2 lysate, 1.372 nM compound
# [17] = HepG2 lysate, 4.115 nM compound
# [18] = HepG2 lysate, 12.346 nM compound
# [19] = HepG2 lysate, 37.037 nM compound
# [20] = HepG2 lysate, 111.111 nM compound
# [21] = HepG2 lysate, 333.333 nM compound
structure (smiles),measurement,setting,value
Cc1ccc(CON=C2C=CC=CC3OC3CC(C)OC(=O)c3c(O)cc(O)c(Cl)c3C2)cc1 (mixture of isomers) [compound 218],Ratio re. GdA,[1],57.1252
same,FP signal (raw),[1]; 0.457 nM,202
same,FP signal relative to 0 nM,[1]; 0.457 nM compound,0.9806
same,FP signal,[1]; 0.457 nM compound,202
same,FP signal (raw),[1]; 1.372 nM,199
same,FP signal relative to 0 nM,[1]; 1.372 nM compound,0.966
same,FP signal,[1]; 1.372 nM compound,199
same,FP signal (raw),[1]; 4.115 nM,200
same,FP signal relative to 0 nM,[1]; 4.115 nM compound,0.9709
same,FP signal,[1]; 4.115 nM compound,200
same,FP signal (raw),[1]; 12.346 nM,199
same,FP signal relative to 0 nM,[1]; 12.346 nM compound,0.966
same,FP signal,[1]; 12.346 nM compound,199
same,FP signal (raw),[1]; 37.037 nM,200
same,FP signal relative to 0 nM,[1]; 37.037 nM compound,0.9709
same,FP signal,[1]; 37.037 nM compound,200
same,FP signal (raw),[1]; 111.111 nM,197
same,FP signal relative to 0 nM,[1]; 111.111 nM compound,0.9563
same,FP signal,[1]; 111.111 nM compound,197
same,FP signal (raw),[1]; 333.333 nM,171
same,FP signal relative to 0 nM,[1]; 333.333 nM compound,0.8301
same,FP signal,[1]; 333.333 nM compound,171
same,FP signal (raw),[1]; 1000 nM,108
same,FP signal relative to 0 nM,[1]; 1000 nM compound,0.5243
same,FP signal,[1]; 1000 nM compound,108
same,FP signal (raw),[1]; 3000 nM,45
same,FP signal relative to 0 nM,[1]; 3000 nM compound,0.2184
same,FP signal,[1]; 3000 nM compound,45
same,HepG2/SC5314,[1]; [2],1.973
same,HepG2/SC5314,[1]; [3],1.973
same,Ratio rel. GdA (HepG2),Hsp90 in HEPG2 lysate; [4],112.714
same,Ratio rel. GdA (HepG2),Hsp90 in HEPG2 lysate; [5],112.714
same,"FP signal, Fxn Control",Hsp90 in HEPG2 lysate; [6],0.9811
same,"FP signal, Fxn Control",Hsp90 in HEPG2 lysate; [7],0.9953
same,"FP signal, Fxn Control",Hsp90 in HEPG2 lysate; [8],0.9858
same,"FP signal, Fxn Control",Hsp90 in HEPG2 lysate; [9],0.9906
same,"FP signal, Fxn Control",Hsp90 in HEPG2 lysate; [10],0.9811
same,"FP signal, Fxn Control",Hsp90 in HEPG2 lysate; [11],0.9575
same,"FP signal, Fxn Control",Hsp90 in HEPG2 lysate; [12],0.8066
same,"FP signal, Fxn Control",Hsp90 in HEPG2 lysate; [13],0.4009
same,"FP signal, Fxn Control",Hsp90 in HEPG2 lysate; [14],0.9906
same,FP signal (raw),"Hsp90 in HEPG2 lysate; HepG2 lysate, 0.457 nM",210
same,FP signal,Hsp90 in HEPG2 lysate; [15],210
same,FP signal (raw),"Hsp90 in HEPG2 lysate; HepG2 lysate, 1.372 nM",208
same,FP signal,Hsp90 in HEPG2 lysate; [16],208
same,FP signal (raw),"Hsp90 in HEPG2 lysate; HepG2 lysate, 4.115 nM",211
same,FP signal,Hsp90 in HEPG2 lysate; [17],211
same,FP signal (raw),"Hsp90 in HEPG2 lysate; HepG2 lysate, 12.346 nM",209
same,FP signal,Hsp90 in HEPG2 lysate; [18],209
same,FP signal (raw),"Hsp90 in HEPG2 lysate; HepG2 lysate, 37.037 nM",210
same,FP signal,Hsp90 in HEPG2 lysate; [19],210
same,FP signal (raw),"Hsp90 in HEPG2 lysate; HepG2 lysate, 111.111 nM",208
same,FP signal,Hsp90 in HEPG2 lysate; [20],208
same,FP signal (raw),"Hsp90 in HEPG2 lysate; HepG2 lysate, 333.333 nM",203
same,FP signal,Hsp90 in HEPG2 lysate; [21],203
same,FP signal (raw),"Hsp90 in HEPG2 lysate; HepG2 lysate, 1000 nM",171
same,FP signal,"Hsp90 in HEPG2 lysate; HepG2 lysate, 1000 nM compound",171
same,FP signal (raw),"Hsp90 in HEPG2 lysate; HepG2 lysate, 3000 nM",85
same,FP signal,"Hsp90 in HEPG2 lysate; HepG2 lysate, 3000 nM compound",85
same,pEC50,"Hsp90 in HEPG2 lysate; HepG2 lysate, oxime panel experiment 220817",5.60
COc1ccc(CON=C2C=CC=CC3OC3CC(C)OC(=O)c3c(O)cc(O)c(Cl)c3C2)cc1 (mixture of isomers) [compound 224],Ratio re. GdA,[1],79.2475
same,FP signal (raw),[1]; 0.457 nM,204
same,FP signal relative to 0 nM,[1]; 0.457 nM compound,1.02
same,FP signal,[1]; 0.457 nM compound,204
same,FP signal (raw),[1]; 1.372 nM,206
same,FP signal relative to 0 nM,[1]; 1.372 nM compound,1.03
same,FP signal,[1]; 1.372 nM compound,206
same,FP signal (raw),[1]; 4.115 nM,205
same,FP signal relative to 0 nM,[1]; 4.115 nM compound,1.025
same,FP signal,[1]; 4.115 nM compound,205
same,FP signal (raw),[1]; 12.346 nM,200
same,FP signal relative to 0 nM,[1]; 12.346 nM compound,1
same,FP signal,[1]; 12.346 nM compound,200
same,FP signal (raw),[1]; 37.037 nM,198
same,FP signal relative to 0 nM,[1]; 37.037 nM compound,0.99
same,FP signal,[1]; 37.037 nM compound,198
same,FP signal (raw),[1]; 111.111 nM,193
same,FP signal relative to 0 nM,[1]; 111.111 nM compound,0.965
same,FP signal,[1]; 111.111 nM compound,193
same,FP signal (raw),[1]; 333.333 nM,171
same,FP signal relative to 0 nM,[1]; 333.333 nM compound,0.855
same,FP signal,[1]; 333.333 nM compound,171
same,FP signal (raw),[1]; 1000 nM,116
same,FP signal relative to 0 nM,[1]; 1000 nM compound,0.58
same,FP signal,[1]; 1000 nM compound,116
same,FP signal (raw),[1]; 3000 nM,52
same,FP signal relative to 0 nM,[1]; 3000 nM compound,0.26
same,FP signal,[1]; 3000 nM compound,52
same,HepG2/SC5314,[1]; [2],1.707
same,HepG2/SC5314,[1]; [3],1.707
same,Ratio rel. GdA (HepG2),Hsp90 in HEPG2 lysate; [4],135.257
same,Ratio rel. GdA (HepG2),Hsp90 in HEPG2 lysate; [5],135.257
same,"FP signal, Fxn Control",Hsp90 in HEPG2 lysate; [6],1.005
same,"FP signal, Fxn Control",Hsp90 in HEPG2 lysate; [7],0.9952
same,"FP signal, Fxn Control",Hsp90 in HEPG2 lysate; [8],1.01
same,"FP signal, Fxn Control",Hsp90 in HEPG2 lysate; [9],1.014
same,"FP signal, Fxn Control",Hsp90 in HEPG2 lysate; [10],1.005
same,"FP signal, Fxn Control",Hsp90 in HEPG2 lysate; [11],0.9952
same,"FP signal, Fxn Control",Hsp90 in HEPG2 lysate; [12],0.8702
same,"FP signal, Fxn Control",Hsp90 in HEPG2 lysate; [13],0.5048
same,"FP signal, Fxn Control",Hsp90 in HEPG2 lysate; [14],0.9904
same,FP signal (raw),"Hsp90 in HEPG2 lysate; HepG2 lysate, 0.457 nM",206
same,FP signal,Hsp90 in HEPG2 lysate; [15],206
same,FP signal (raw),"Hsp90 in HEPG2 lysate; HepG2 lysate, 1.372 nM",209
same,FP signal,Hsp90 in HEPG2 lysate; [16],209
same,FP signal (raw),"Hsp90 in HEPG2 lysate; HepG2 lysate, 4.115 nM",207
same,FP signal,Hsp90 in HEPG2 lysate; [17],207
same,FP signal (raw),"Hsp90 in HEPG2 lysate; HepG2 lysate, 12.346 nM",210
same,FP signal,Hsp90 in HEPG2 lysate; [18],210
same,FP signal (raw),"Hsp90 in HEPG2 lysate; HepG2 lysate, 37.037 nM",211
same,FP signal,Hsp90 in HEPG2 lysate; [19],211
same,FP signal (raw),"Hsp90 in HEPG2 lysate; HepG2 lysate, 111.111 nM",209
same,FP signal,Hsp90 in HEPG2 lysate; [20],209
same,FP signal (raw),"Hsp90 in HEPG2 lysate; HepG2 lysate, 333.333 nM",207
same,FP signal,Hsp90 in HEPG2 lysate; [21],207
same,FP signal (raw),"Hsp90 in HEPG2 lysate; HepG2 lysate, 1000 nM",181
same,FP signal,"Hsp90 in HEPG2 lysate; HepG2 lysate, 1000 nM compound",181
same,FP signal (raw),"Hsp90 in HEPG2 lysate; HepG2 lysate, 3000 nM",105
same,FP signal,"Hsp90 in HEPG2 lysate; HepG2 lysate, 3000 nM compound",105
